Measurements reported in paper PMC10436550, “Subacute toxicity evaluations of LPM3480392 in rats, a full µ-opioid receptor biased agonist” (Frontiers in Pharmacology, 2023).

How the values were obtained:
[1] = Food consumption, 4-week subacute toxicity study; assay type: in vivo, Sprague Dawley (SD) rats
Description: Food consumption of all surviving animals was recorded twice a week during the dosing phase and then once a week in last 2 weeks of recovery phase.

µ-opioid receptor (MOR) = test system: µ-opioid receptor (MOR); parameters: method as in Yang et al., 2022; conditions: ref Yang et al., 2022, cited from earlier work
[2] = female rats, 0.6 mg/kg/day, Day 3
[3] = female rats, 0.6 mg/kg/day, Day 7
[4] = female rats, 0.6 mg/kg/day, Day 10
[5] = female rats, 0.6 mg/kg/day, Day 14
[6] = female rats, 0.6 mg/kg/day, Day 17
[7] = female rats, 0.6 mg/kg/day, Day 21
[8] = female rats, 0.6 mg/kg/day, Day 24
[9] = female rats, 0.6 mg/kg/day, Day 28
[10] = female rats, 0.6 mg/kg/day, Recovery day 20
[11] = female rats, 0.6 mg/kg/day, Recovery day 27
[12] = female rats, 1.2 mg/kg/day, Day 3
[13] = female rats, 1.2 mg/kg/day, Day 7
[14] = female rats, 1.2 mg/kg/day, Day 10
[15] = female rats, 1.2 mg/kg/day, Day 14
[16] = female rats, 1.2 mg/kg/day, Day 17
[17] = female rats, 1.2 mg/kg/day, Day 21
[18] = female rats, 1.2 mg/kg/day, Day 24
[19] = female rats, 1.2 mg/kg/day, Day 28
[20] = female rats, 1.2 mg/kg/day, Recovery day 20
[21] = female rats, 1.2 mg/kg/day, Recovery day 27
[22] = female rats, 2.4 mg/kg/day, Day 3
[23] = female rats, 2.4 mg/kg/day, Day 7
[24] = female rats, 2.4 mg/kg/day, Day 10
[25] = female rats, 2.4 mg/kg/day, Day 14
[26] = female rats, 2.4 mg/kg/day, Day 17
[27] = female rats, 2.4 mg/kg/day, Day 21
[28] = female rats, 2.4 mg/kg/day, Day 24
[29] = female rats, 2.4 mg/kg/day, Day 28
[30] = female rats, 2.4 mg/kg/day, Recovery day 20
[31] = female rats, 2.4 mg/kg/day, Recovery day 27
[32] = male rats, 0.6 mg/kg/day, Day 3
[33] = male rats, 0.6 mg/kg/day, Day 7
[34] = male rats, 0.6 mg/kg/day, Day 10
[35] = male rats, 0.6 mg/kg/day, Day 14
[36] = male rats, 0.6 mg/kg/day, Day 17
[37] = male rats, 0.6 mg/kg/day, Day 21
[38] = male rats, 0.6 mg/kg/day, Day 24
[39] = male rats, 0.6 mg/kg/day, Day 28
[40] = male rats, 0.6 mg/kg/day, Recovery day 20
[41] = male rats, 0.6 mg/kg/day, Recovery day 27
[42] = male rats, 1.2 mg/kg/day, Day 3
[43] = male rats, 1.2 mg/kg/day, Day 7
[44] = male rats, 1.2 mg/kg/day, Day 10
[45] = male rats, 1.2 mg/kg/day, Day 14
[46] = male rats, 1.2 mg/kg/day, Day 17
[47] = male rats, 1.2 mg/kg/day, Day 21
[48] = male rats, 1.2 mg/kg/day, Day 24
[49] = male rats, 1.2 mg/kg/day, Day 28
[50] = male rats, 1.2 mg/kg/day, Recovery day 20
[51] = male rats, 1.2 mg/kg/day, Recovery day 27
[52] = male rats, 2.4 mg/kg/day, Day 3
[53] = male rats, 2.4 mg/kg/day, Day 7
[54] = male rats, 2.4 mg/kg/day, Day 10
[55] = male rats, 2.4 mg/kg/day, Day 14
[56] = male rats, 2.4 mg/kg/day, Day 17
[57] = male rats, 2.4 mg/kg/day, Day 21
[58] = male rats, 2.4 mg/kg/day, Day 24
[59] = male rats, 2.4 mg/kg/day, Day 28
[60] = male rats, 2.4 mg/kg/day, Recovery day 20
[61] = male rats, 2.4 mg/kg/day, Recovery day 27

## Fc1ccc([C@]2(CCNCc3cccc(Cl)c3)CCO[C@]3(CCOC3)C2)nc1 [LPM3480392]
[1]; [2]
  Food consumption: 12.6 ± 1.3 g/animal/cage/day
  Food consumption change rate: −14.86%
[1]; [3]
  Food consumption: 15.4 ± 1.1 g/animal/cage/day
  Food consumption change rate: 1.32%
[1]; [4]
  Food consumption: 15.9 ± 1.1 g/animal/cage/day
  Food consumption change rate: −3.05%
[1]; [5]
  Food consumption: 16.0 ± 0.5 g/animal/cage/day
  Food consumption change rate: −15.79%
[1]; [6]
  Food consumption: 15.8 ± 1.0 g/animal/cage/day
  Food consumption change rate: 9.72%
[1]; [7]
  Food consumption: 15.7 ± 0.7 g/animal/cage/day
  Food consumption change rate: −1.88%
[1]; [8]
  Food consumption: 14.9 ± 1.4 g/animal/cage/day
  Food consumption change rate: −6.29%
[1]; [9]
  Food consumption: 16.4 ± 0.9 g/animal/cage/day
  Food consumption change rate: −0.61%
[1]; [10]
  Food consumption: 15.9 g/animal/cage/day
  Food consumption change rate: −5.36%
[1]; [11]
  Food consumption: 13.3 g/animal/cage/day
  Food consumption change rate: −15.82%
[1]; [12]
  Food consumption: 14.9 ± 1.1 g/animal/cage/day
  Food consumption change rate: 0.68%
[1]; [13]
  Food consumption: 15.0 ± 1.3 g/animal/cage/day
  Food consumption change rate: −1.32%
[1]; [14]
  Food consumption: 15.2 ± 0.6 g/animal/cage/day
  Food consumption change rate: −7.32%
[1]; [15]
  Food consumption: 15.7 ± 0.9 g/animal/cage/day
  Food consumption change rate: −17.37%
[1]; [16]
  Food consumption: 16.6 ± 0.2 g/animal/cage/day
  Food consumption change rate: 15.28%
[1]; [17]
  Food consumption: 15.8 ± 1.4 g/animal/cage/day
  Food consumption change rate: −1.25%
[1]; [18]
  Food consumption: 16.6 ± 1.7 g/animal/cage/day
  Food consumption change rate: 4.40%
[1]; [19]
  Food consumption: 16.4 ± 0.8 g/animal/cage/day
  Food consumption change rate: −0.61%
[1]; [20]
  Food consumption: 15.1 g/animal/cage/day
  Food consumption change rate: −10.12%
[1]; [21]
  Food consumption: 16.7 g/animal/cage/day
  Food consumption change rate: 5.70%
[1]; [22]
  Food consumption: 13.0 ± 2.1 g/animal/cage/day
  Food consumption change rate: −12.16%
[1]; [23]
  Food consumption: 15.8 ± 1.9 g/animal/cage/day
  Food consumption change rate: 3.95%
[1]; [24]
  Food consumption: 15.1 ± 0.8 g/animal/cage/day
  Food consumption change rate: −7.93%
[1]; [25]
  Food consumption: 17.5 ± 1.0 g/animal/cage/day
  Food consumption change rate: −7.89%
[1]; [26]
  Food consumption: 15.1 ± 1.0 g/animal/cage/day
  Food consumption change rate: 4.86%
[1]; [27]
  Food consumption: 17.5 ± 1.3 g/animal/cage/day
  Food consumption change rate: 9.38%
[1]; [28]
  Food consumption: 15.6 ± 1.2 g/animal/cage/day
  Food consumption change rate: −1.89%
[1]; [29]
  Food consumption: 16.7 ± 0.8 g/animal/cage/day
  Food consumption change rate: 1.21%
[1]; [30]
  Food consumption: 16.4 g/animal/cage/day
  Food consumption change rate: −2.38%
[1]; [31]
  Food consumption: 15.0 g/animal/cage/day
  Food consumption change rate: −5.06%
[1]; [32]
  Food consumption: 19.7 ± 0.1 g/animal/cage/day
  Food consumption change rate: −2.96%
[1]; [33]
  Food consumption: 20.8 ± 0.6 g/animal/cage/day
  Food consumption change rate: −8.37%
[1]; [34]
  Food consumption: 23.0 ± 1.6 g/animal/cage/day
  Food consumption change rate: −17.56%
[1]; [35]
  Food consumption: 21.0 ± 1.3 g/animal/cage/day
  Food consumption change rate: −17.32%
[1]; [36]
  Food consumption: 21.1 ± 1.9 g/animal/cage/day
  Food consumption change rate: −11.34%
[1]; [37]
  Food consumption: 21.6 ± 0.8 g/animal/cage/day
  Food consumption change rate: −9.24%
[1]; [38]
  Food consumption: 20.6 ± 1.0 g/animal/cage/day
  Food consumption change rate: −8.04%
[1]; [39]
  Food consumption: 22.9 ± 1.2 g/animal/cage/day
  Food consumption change rate: −5.76%
[1]; [40]
  Food consumption: 25.2 g/animal/cage/day
  Food consumption change rate: 0.40%
[1]; [41]
  Food consumption: 22.3 g/animal/cage/day
  Food consumption change rate: 0.90%
[1]; [42]
  Food consumption: 19.2 ± 0.9 g/animal/cage/day
  Food consumption change rate: −5.42%
[1]; [43]
  Food consumption: 20.5 ± 0.7 g/animal/cage/day
  Food consumption change rate: −9.69%
[1]; [44]
  Food consumption: 20.4 ± 1.8 g/animal/cage/day
  Food consumption change rate: −26.88%
[1]; [45]
  Food consumption: 20.2 ± 0.7 g/animal/cage/day
  Food consumption change rate: −20.47%
[1]; [46]
  Food consumption: 20.5 ± 1.7 g/animal/cage/day
  Food consumption change rate: −13.87%
[1]; [47]
  Food consumption: 23.2 ± 1.2 g/animal/cage/day
  Food consumption change rate: −2.52%
[1]; [48]
  Food consumption: 22.2 ± 1.1 g/animal/cage/day
  Food consumption change rate: −0.89%
[1]; [49]
  Food consumption: 22.5 ± 1.3 g/animal/cage/day
  Food consumption change rate: −7.41%
[1]; [50]
  Food consumption: 24.5 g/animal/cage/day
  Food consumption change rate: −2.39%
[1]; [51]
  Food consumption: 22.6 g/animal/cage/day
  Food consumption change rate: 2.26%
[1]; [52]
  Food consumption: 17.8 ± 0.8 g/animal/cage/day
  Food consumption change rate: −12.32%
[1]; [53]
  Food consumption: 20.0 ± 2.3 g/animal/cage/day
  Food consumption change rate: −11.89%
[1]; [54]
  Food consumption: 20.1 ± 1.9 g/animal/cage/day
  Food consumption change rate: −27.96%
[1]; [55]
  Food consumption: 17.3 ± 5.2 g/animal/cage/day
  Food consumption change rate: −31.89%
[1]; [56]
  Food consumption: 20.1 ± 0.7 g/animal/cage/day
  Food consumption change rate: −15.55%
[1]; [57]
  Food consumption: 23.2 ± 1.1 g/animal/cage/day
  Food consumption change rate: −2.52%
[1]; [58]
  Food consumption: 22.1 ± 3.0 g/animal/cage/day
  Food consumption change rate: −1.34%
[1]; [59]
  Food consumption: 22.5 ± 1.9 g/animal/cage/day
  Food consumption change rate: −7.41%
[1]; [60]
  Food consumption: 24.0 g/animal/cage/day
  Food consumption change rate: −4.38%
[1]; [61]
  Food consumption: 23.8 g/animal/cage/day
  Food consumption change rate: 7.69%
µ-opioid receptor (MOR)
  Emax, β-arrestin-2 recruitment activity: 1.6%
µ-opioid receptor (MOR); read-out: EC50, β-arrestin-2 recruitment activity
  EC50: > 30 µM
